Assays:
Details in all cases: 72 h
Vero E6 [1] = assay: drug sensitivity score (DSS) for viability; higher = more toxic; extreme values may be limits of the assay
U2OS [2] = assay: as above
Calu-3 [3] = assay: as above
Caco-2 [4] = assay: as above
HepG2 [5] = assay: as above
Vero E6 [6] = assay: cell viability relative to DMSO; higher = less toxic
U2OS [7] = assay: as above
Calu-3 [8] = assay: as above
Caco-2 [9] = assay: as above
HepG2 [10] = assay: as above
Vero E6 [11] = assay: relative viability EC50 (midpoint between 100% and the lowest measured viability); higher = less toxic
U2OS [12] = assay: as above
Calu-3 [13] = assay: as above
HepG2 [14] = assay: as above
Caco-2 [15] = assay: as above

Row | Structure (SMILES) | drug sensitivity score (Vero E6 [1]) | drug sensitivity score (U2OS [2]) | drug sensitivity score (Calu-3 [3]) | drug sensitivity score (Caco-2 [4]) | drug sensitivity score (HepG2 [5]) | cell viability (Vero E6 [6]; 1 nM) | cell viability (Vero E6 [6]; 10 nM) | cell viability (Vero E6 [6]; 100 nM) | cell viability (Vero E6 [6]; 1000 nM) | cell viability (Vero E6 [6]; 10000 nM) | cell viability (U2OS [7]; 1 nM) | cell viability (U2OS [7]; 10 nM) | cell viability (U2OS [7]; 100 nM) | cell viability (U2OS [7]; 1000 nM) | cell viability (U2OS [7]; 10000 nM) | cell viability (Calu-3 [8]; 1 nM) | cell viability (Calu-3 [8]; 10 nM) | cell viability (Calu-3 [8]; 100 nM) | cell viability (Calu-3 [8]; 1000 nM) | cell viability (Calu-3 [8]; 10000 nM) | cell viability (Caco-2 [9]; 1 nM) | cell viability (Caco-2 [9]; 10 nM) | cell viability (Caco-2 [9]; 100 nM) | cell viability (Caco-2 [9]; 1000 nM) | cell viability (Caco-2 [9]; 10000 nM) | cell viability (HepG2 [10]; 1 nM) | cell viability (HepG2 [10]; 10 nM) | cell viability (HepG2 [10]; 100 nM) | cell viability (HepG2 [10]; 1000 nM) | cell viability (HepG2 [10]; 10000 nM) | relative viability EC50 (Vero E6 [11]) | relative viability EC50 (U2OS [12]) | relative viability EC50 (Calu-3 [13]) | relative viability EC50 (HepG2 [14]) | relative viability EC50 (Caco-2 [15])
1 | CN1CCN(c2ccc(OC(F)(F)F)c(Nc3ncc4c(n3)-c3c(c(C(N)=O)nn3CCO)CC4)c2)CC1 | 8.8 | 10 | 5.1 | 11 | 18.8 | 102% | 112% | 99.7% | 52.4% | 48.3% | 108% | 103% | 98.2% | 46.5% | 41.3% | 100% | 105% | 78.7% | 84.9% | 84.7% | 104% | 94.9% | 77.3% | 52% | 62.3% | 105% | 95% | 70.4% | 16.7% | 15.8% | 0.395 µM | 0.394 µM | > 10 µM | 0.139 µM | –
2 | Cc1sc2c(c1C)C(c1ccc(Cl)cc1)=N[C@@H](CC(N)=O)c1nnc(C)n1-2 [CPI-203] | 18.6 | 9.3 | 4.7 | 4.7 | 13.2 | 96.4% | 93.9% | 73.7% | 15.4% | 11% | 93.9% | 94.4% | 86.1% | 57.9% | 43.6% | 98.3% | 105% | 100% | 78.3% | 60% | 100% | 95.8% | 88.9% | 76.3% | 70.5% | 91.8% | 94.3% | 81.3% | 40.2% | 35.2% | 0.172 µM | 0.302 µM | – | 0.186 µM | –
3 | CO[C@@]1(NC(=O)CSCC#N)C(=O)N2C(C(=O)O)=C(CSc3nnnn3C)CS[C@@H]21 [cefmetazole] | 0 | – | 0 | 0 | 0 | 96.7% | 102% | 102% | 97.9% | 93.2% | – | – | – | – | – | 101% | 97.6% | 99.7% | 108% | 108% | 109% | 106% | 108% | 94.7% | 105% | 106% | 105% | 99.7% | 97.4% | 117% | > 10 µM | – | > 10 µM | > 10 µM | > 10 µM
4 | O=C(NC1(c2ccccc2)CC1)c1c(CN2CCC(N3CCCCC3)CC2)c(-c2cccc(C(F)(F)F)c2)nc2cc(Br)ccc12 | 3.4 | 5.2 | 7.8 | 2.5 | 2.7 | 93.3% | 98.3% | 102% | 99.3% | 38.4% | 98.5% | 95.1% | 101% | 96% | 15.7% | 97.1% | 90.2% | 96% | 85.8% | 1.2% | 95.4% | 88.3% | 112% | 98.8% | 55.2% | 93.6% | 101% | 104% | 102% | 45.4% | 3.09 µM | 2.81 µM | 2.02 µM | 3.4 µM | –
5 | COC(=O)N1CC[C@@H]2[C@H]1CCC[C@@]2(O)C#Cc1cccc(C)c1 [mavoglurant] | 0 | 0 | – | 0 | 0 | 104% | 101% | 106% | 104% | 97.4% | 103% | 99.9% | 102% | 101% | 95.8% | – | – | – | – | – | 110% | 120% | 100% | 98.4% | 108% | 102% | 107% | 95.5% | 91.8% | 114% | > 10 µM | > 10 µM | – | > 10 µM | > 10 µM
6 | CC(=O)[C@]1(N)Cc2c(O)c3c(c(O)c2[C@@H](O[C@H]2C[C@H](O)[C@H](O)CO2)C1)C(=O)c1ccccc1C3=O [amrubicin] | 5.7 | 0.9 | 0 | 7.3 | 8.1 | 96% | 104% | 99.8% | 88.4% | 32.1% | 104% | 99% | 102% | 102% | 73.7% | 96% | 117% | 114% | 110% | 86.7% | 101% | 105% | 99.6% | 86.9% | 7.4% | 105% | 110% | 103% | 84.5% | -0.2% | 1.87 µM | – | > 10 µM | 1.96 µM | 2.04 µM
7 | Cn1cc(C(F)(F)F)nc1-c1ccc(OCC(O)CNCCOc2ccc(O)c(C(N)=O)c2)cc1 (configuration not stated) | 0 | 0 | – | 0.2 | 0 | 104% | 96.4% | 102% | 90.1% | 95.7% | 98.7% | 100% | 94% | 101% | 98.1% | – | – | – | – | – | 102% | 96.6% | 102% | 98.7% | 87.4% | 111% | 97% | 122% | 94.3% | 114% | > 10 µM | > 10 µM | – | > 10 µM | > 10 µM
8 | Nc1nccc2c1ncn2[C@@H]1O[C@H](CO)[C@@H](O)[C@@H]1O [3-deazaadenosine] | 0 | 0 | – | 0 | 0 | 87.4% | 100% | 90.8% | 92.8% | 95.1% | 99.9% | 99.4% | 97.7% | 103% | 95.8% | – | – | – | – | – | 89.8% | 101% | 97.9% | 89.2% | 97% | 97.9% | 103% | 95.6% | 97.3% | 96.1% | > 10 µM | > 10 µM | – | > 10 µM | > 10 µM
9 | CCN(CC)CC(=O)Nc1c(C)cccc1C [lidocaine] | 0 | 0 | – | 3.6 | 0 | 108% | 101% | 105% | 97.8% | 97.9% | 99.7% | 105% | 94.8% | 97.2% | 100% | – | – | – | – | – | 103% | 108% | 90.8% | 80.4% | 97% | 101% | 97.4% | 88.1% | 116% | 107% | > 10 µM | > 10 µM | – | > 10 µM | > 10 µM
10 | CC1(COc2ccc3c(c2)ncn3-c2ccc3cccc(N4CCC(N)CC4)c3n2)COC1 [crenolanib] | 4.1 | 4.9 | – | 0 | 4.9 | 102% | 104% | 101% | 102% | 22.6% | 106% | 102% | 106% | 101% | 9.4% | – | – | – | – | – | 101% | 97.1% | 102% | 112% | 94.5% | 107% | 103% | 107% | 101% | 9.5% | 3.3 µM | 3.26 µM | – | 3.26 µM | > 10 µM
11 | CCC(=O)N[C@@H]1Cc2ccccc2[C@H](c2ccccc2)C1 [4-P-PDOT] | 0 | – | 0 | 0 | 0 | 95.9% | 97.4% | 100% | 96.1% | 98.5% | – | – | – | – | – | 105% | 94.6% | 104% | 114% | 102% | 103% | 95.4% | 100% | 95.1% | 94.4% | 106% | 111% | 99% | 88.9% | 108% | > 10 µM | – | > 10 µM | > 10 µM | > 10 µM
12 | Fc1ccc(C(OCCN2CCN(CCCc3ccccc3)CC2)c2ccc(F)cc2)cc1 [vanoxerine] | 3.9 | 1 | 0.6 | 3.8 | 4.6 | 107% | 104% | 104% | 97.1% | 35.3% | 106% | 102% | 103% | 102% | 72.4% | 102% | 94.6% | 102% | 98.9% | 81.2% | 103% | 93.2% | 99.9% | 93.1% | 50.3% | 102% | 102% | 102% | 104% | 11% | 2.82 µM | – | > 10 µM | 3.42 µM | –
13 | O=c1cc(-c2cccc3c2Sc2ccccc2S3)oc(N2CCOCC2)c1 | 0.2 | 0 | 0 | 2.5 | 0.1 | 97.5% | 102% | 101% | 106% | 83.3% | 99.8% | 99.6% | 102% | 100% | 93.3% | 100% | 98.9% | 98.2% | 104% | 106% | 103% | 102% | 98.2% | 93.3% | 67.8% | 104% | 102% | 93.5% | 108% | 85.9% | > 10 µM | > 10 µM | > 10 µM | > 10 µM | –
14 | CN(C(=O)CN(CCO)CC(=O)N(C)C(C)(C)Cc1ccccc1)C(C)(C)Cc1ccccc1 [oxethazaine] | 0 | 1.9 | 3.4 | 1.9 | 0 | 94.8% | 97.7% | 93.7% | 99.8% | 101% | 99.7% | 97.5% | 101% | 97.2% | 68.2% | 94.4% | 101% | 100% | 97.6% | 42.2% | 90.7% | 105% | 102% | 93.1% | 74.6% | 104% | 101% | 98.9% | 111% | 91.2% | > 10 µM | – | 2.86 µM | > 10 µM | –
15 | CC(C)(C)S(=O)(=O)N[C@H]1CC[C@H](C(=O)Nc2ccc(C(F)(F)F)cn2)CC1 [velneperit] | 0 | – | 0 | 0 | 0 | 94.4% | 104% | 98.4% | 101% | 94.5% | – | – | – | – | – | 106% | 103% | 117% | 95.5% | 99.1% | 109% | 98.1% | 103% | 91.7% | 104% | 100% | 105% | 105% | 98.9% | 98% | > 10 µM | – | > 10 µM | > 10 µM | > 10 µM
16 | COc1cc(NC(=O)c2ccc(-c3ccc(Cl)cc3)o2)cc(OC)c1 | 0 | – | 0 | 0 | 0 | 94.5% | 101% | 97.2% | 97.6% | 101% | – | – | – | – | – | 121% | 103% | 109% | 101% | 99.3% | 108% | 98.9% | 107% | 102% | 98.1% | 105% | 109% | 91.9% | 114% | 102% | > 10 µM | – | > 10 µM | > 10 µM | > 10 µM

— the supplement of paper PMC13380429
